Measured values as given in patent US4299820A, “Therapeutic process employing amides of L and DL phenylglycines” (Pfizer Inc., priority 1977, dated 1981).
Square brackets hold non-standard residues; d marks the D form. Peptide text beside a SMILES is read from it. Hpg = N[C@H](C(=O)O)c1ccc(O)cc1

What was measured:
[1] = system: diaphragm tissue from fat-fed rats; assay: Pyruvate oxidation by diaphragm tissue from fat-fed rats in vitro (14C from labelled pyruvate into CO2); design: species or system rat; conditions: diaphragm tissue from rats fed on a high fat diet
Method: Representative compounds of the formula (II) have been tested for their ability to increase the oxidation of glucose and/or pyruvate as follows:
Diaphragm tissue is obtained from rats fed on a high fat diet similar to `Diet B` described by Zaragoza and Felber [Horm.Metab. Res., 2, 323 (1970)]. Pyruvate oxidation by such tissue is assessed by measurement of the rate of incorporation of carbon-14 from carbon-14-labelled pyruvate into carbon dioxide in vitro, as described by Bringolf [Eur. J. Biochem., 26, 360 (1972)]. The rate of pyruvate oxidation is depressed by 50%-75% compared with that by diaphragm tissue from rats fed on a normal diet. When the compounds of the formula (II) are added to the medium, they are found to stimulate pyruvate oxidation by diaphragm tissue from fat-fed rats in a dose dependent manner.

[2] = system: pyruvate dehydrogenase enzyme; assay: Proportion of active form of pyruvate dehydrogenase (PDHa/PDHt) in hearts of fat-fed rats after treatment; format: in vivo; conditions: fat-fed rat heart, after 11/2 hours
Method: The ability of compounds of formula (II) to increase the proportion of the active form of the pyruvate dehydrogenase enzyme has been measured in the following test:
Rats fed on a high fat diet as in the previous test, are treated either with placebo or with the compound of formula (II) by subcutaneous or intravenous injection or by oral administration. After 11/2 hours the rat hearts are removed and homogenized under conditions which minimize changes in the proportion of the pyruvate dehydrogenase enzyme (PDHt) which is present in the active form, as described by Whitehouse and Randle [Biochem. J., 134, 651 (1973)]. The total amount of the enzyme present (PDHt) and the amount which is present in the active form (PDHa) are assessed by a method similar to that described by Taylor et al. [J. Biol. Chem., 248, 73 (1973)]. The fat-feeding process is found to depress the ratio PDHa/PDHt from a normal value of about 0.7 to a value in the range from 0.05 to 0.2. Treatment of fat-fed rats with the compounds of formula (II) either parenterally or orally, increases this ratio in a dose-dependent manner.

SMILES	% Stimulation (pyruvate oxidation) ([1]; Concentration 0.25 mM) [%]	PDHa/PDHt ratio, compound ([2]; Dose 1.2 mmoles/kg p.o.)	% Stimulation (pyruvate oxidation) ([1]; Concentration 2 mM) [%]	PDHa/PDHt ratio, compound ([2]; Dose 0.6 mmoles/kg p.o.)	PDHa/PDHt ratio, compound ([2]; Dose 0.6 mmoles/kg s.c.)	PDHa/PDHt ratio, compound ([2]; Dose 1.2 mmoles/kg s.c.)
Br.COC(=O)[C@@H](NC(=O)[C@@H](N)c1ccc(O)cc1)c1ccc(O)cc1 [Example 1, L,L-Methyl N-[2-(4-hydroxyphenyl)glycyl]-2-(4-hydroxyphenyl)glycinate hydrobromide] (H-[Hpg]-[Hpg]-OMe)	23	1.00	–	–	–	–
Br.Br.N[C@H](C(=O)N[C@H](C(=O)O)c1ccc(O)cc1)c1ccc(O)cc1.N[C@H](C(=O)N[C@H](C(=O)O)c1ccc(O)cc1)c1ccc(O)cc1.O [Example 3, L,L-N-[2-(4-hydroxyphenyl)glycyl]-2-(4-hydroxyphenyl)glycine hydrobromide hemihydrate] (H-[Hpg]-[Hpg]-OH)	39	0.75	–	–	–	–
Br.COC(=O)[C@@H](NC(=O)[C@H](C)N)c1ccc(O)cc1 [Example 7, L,L-Methyl N-alanyl-2-(4-hydroxyphenyl)glycinate hydrobromide] (H-Ala-[Hpg]-OMe)	–	–	61	–	–	–
Br.C[C@H](N)C(=O)N[C@H](C(=O)O)c1ccc(O)cc1 [Example 8, L,L-N-Alanyl-2-(4-hydroxyphenyl)glycine hydrobromide] (H-Ala-[Hpg]-OH)	–	–	23	0.56	0.77	–
Br.CC[C@H](C)[C@H](N)C(=O)N[C@H](C(=O)OC)c1ccc(O)cc1.O [Example 9, L,L-Methyl N-isoleucyl-2-(4-hydroxyphenyl)glycinate hydrobromide monohydrate] (H-Ile-[Hpg]-OMe)	–	0.24	35	–	–	0.48
Br.CC[C@H](C)[C@H](N)C(=O)N[C@H](C(=O)O)c1ccc(O)cc1 [Example 10, L,L-N-isoleucyl-2-(4-hydroxyphenyl)glycine hydrobromide] (H-Ile-[Hpg]-OH)	–	–	10	0.72	0.86	–
